Experimental data published in paper PMC11574045, “A cofactor-induced repressive type of transcription factor condensation can be induced by synthetic peptides to suppress tumorigenesis” (The EMBO Journal, 2024).
Values joined by “and” are separate entries in the source; they are usually repeats but may differ in a detail not shown here. Equal entries are not always repeated. Ends that are not written are not given here.

Assays:
HGC-27 cells [1] = assay: RNA sequencing; assay type: cell-based, human; conditions: GLUP-treated HGC-27 cells
Protocol: For RNA sequencing, HGC-27 cells in 6-well plates were treated with GLUP peptide at 10 μg/ml for 48 h. The stocking buffer (20 mM HEPES pH 7.5, and 100 mM NaCl) was used as a negative control. Total RNA was extracted from at least two biological replicates. Extracted RNA was monitored for its quality using a 2100 Expert Bioanalyzer (Agilent) before being sent for library preparation and RNA sequencing (Majorbio). The RNA sequencing data were analyzed on a free online Majorbio I-Sanger Cloud Platform (www.majorbio.com).

HGC-27 xenograft tumors = assay: HGC-27 xenograft tumor formation assay; assay type: in vivo, mouse; set-up: Tumor volume, GLUP+ / Tumor volume, GLUP++: unit not given here
Source text: Mice used in this study were from SLAC Laboratory Animal (Shanghai, China), and included 4-week-old BALB/c nude mice (female) and 8-week-old C57BL/6J mice (male and female). Tumors were allowed to grow to an average size of ~60 mm^3 and then the mice were randomly allocated to groups of 5–6 animals. No blinding was used in the treatment schedules for these experiments since the different treatments were identified by different marks on the tail. Based on our previous experience, 5–6 animals per group would provide statistically significant data while keeping the number of animals used to a minimum. Tumor size was determined by taking caliper measurements of tumor length, width and depth; tumor volume was calculated as 0.5236 × length × width × depth (mm^3).
Healthy female BALB/c nude mice were maintained in pathogen-free conditions to which they were allowed to acclimate for 1 week before being used. For the tumor formation assay, tumor cells (1 × 10^6) were injected into the respective flanks of the mice. Mice in which tumors were detected with an average size of ~60 mm^3 were biweekly administered 1 or 5 mg/kg GLUP via subcutaneous injection. These mice were sacrificed after 4 weeks, and tumor volumes were then measured.

[2] = system: trypsin, actinase E, thermolysin, proteinase K, chymotrypsin-α; assay: Stability of peptides treated with proteases (gel); assay type: in vitro ADME; conditions: 30 °C for 1 h, gel read-out
Source text: To improve the stability and bioavailability of glup, we subjected it to disulfide-cyclization and C-terminal amidation to generate a macrocyclic version of the peptide and denoted it as GLUP (Fig. 5D). […] However, there were no significant differences in solubility, permeability, and TEAD4-binding affinity between GLUP and glup (Fig. 5F and Appendix Figs. S5F–H). […] These droplets rapidly dissolved when exposed to increased concentrations of NaCl (Fig. 5G, right).
Appendix Figure S5. Optimization of the Linker Peptide
A. Fluorescence polarization (FP) assay to detect the interaction of purified TEAD4 protein with FA M-labeled glup. mP, millipolarization (FP values). B. Microscale […]
protein with glup or glupmut. Kd values are shown. glupmut, an interaction-dead control peptide with the sequence […]. C. Crosslinking assay of TEAD4 […]
oligomerization in the presence of glup or glupmut after DSS treatment. D. Crosslinking assay of TEAD4 oligomerization in the presence of glup or GLUP with or without DSS treatment. E. Gels assessing protein stability levels of glup and GLUP after they were treated with indicated proteases. TR, trypsin; AE, actinase E; TH, thermolysin; PK, proteinase K; CH-α, chymotrypsin-α. […]
(right). […] The data were analyzed using one-way ANOVA, followed by the Tukey’s post-hoc test. *, p < 0.05; **, […]

HGC-27 cells [3] = assay: Live-cell imaging of FAM-GLUP cellular entry; assay type: cell-based, human; conditions: FAM-GLUP 10 μg/ml (5 μM), HGC-27 live cells
Protocol: To confirm cellular entry of GLUP, we performed immunostaining of live cells treated with a fluorescein-labeled version of the peptide (FAM-GLUP). […] We then examined the potential effect of GLUP on TEAD4-mediated perturbation of DNA conformation.
(A) Representative live-cell images of HGC-27 cells treated with FAM (a fluorescent moiety)-labeled GLUP for indicated periods of time. FAM-GLUP: 10 μg/ml (5 μM). Scale bar, 10 μm. (B) Representative DAPI staining images of DNA showing its organization and appearance in the presence or absence of TEAD4 and GLUP as indicated. GLUP: 1 μg/ml (0.5 μM). Scale bar, 100 nm. (C) Representative N-SIM images of chromatin in GLUP-treated cells stained with DAPI. GLUP, 1 μg/ml (0.5 μM). Scale bar, 100 nm. (D) Representative images showing co-localization of GFP-TEAD4 with H3K27me3 in HEK293FT cells treated with GLUP together with 1,6-Hex. Scale bar, 1 μm. (E) Average enrichment profiles of H3K27me3 in GLUP-treated WT or TEAD4KO HGC-27 cells, stratified by gene length (three biological replicates, n = 3). Normalization of coverage using RPKM was performed over the genes and flanking region 1 kb in length. GLUP: 10 μg/ml (5 μM). […] The interval scale was 10 in both cases. See also Appendix Fig. S6. Source data are available online for this figure.

MNU-induced GC tumors = assay: MNU-induced gastric cancer mouse model; assay type: in vivo; set-up: Tumor area, GLUP+ / Tumor area, GLUP++: unit not given here
Protocol: For the model involving N-nitroso-N-methylurea (MNU)-induced GC, 8-week-old C57BL/6 mice received 3 cycles of MNU (TRC, Toronto, Canada) in drinking water. For each cycle, drinking water containing 240 μg/ml MNU was served to the mice for 1 week, and then normal drinking water the next week. After 19 weeks of MNU administration, mice were randomized to receive GLUP via intraperitoneal injection (i.p.) biweekly for the following 5 weeks (n = 8/group). After 24 weeks, mice were sacrificed for subsequent analysis. The tumor volume per stomach was measured.

[4] = system: GFP-TEAD4 condensates in HEK293FT cells; assay: GFP-TEAD4 condensate imaging, condensed fraction in cells; assay type: cell-based; conditions: HEK293FT, GLUP 10 μg/ml (5 μM) 12 h; individual cells, n = 9

RRVCVHFHFSLSLR-NH2 (C-terminus assumed) [glup]
GSEA of TEAD signature genes (HGC-27 cells [1]): negative enrichment of TEAD signature genes | Growth of xenografted tumors (HGC-27 xenograft tumors; 1 or 5 mg/kg GLUP): inhibited growth of xenografted tumors in a dose-dependent manner | Tumor volume, GLUP+ (HGC-27 xenograft tumors; nude mice, 1 mg/kg GLUP s.c. biweekly, individual mice, n = 5 (source data Fig 7E), 1 mg/kg): 0.858 and 0.629 and 0.519 and 0.753 and 0.732 | Tumor volume, GLUP++ (HGC-27 xenograft tumors; nude mice, 5 mg/kg GLUP s.c. biweekly, individual mice, n = 5 (source data Fig 7E), 5 mg/kg): 0.345 and 0.321 and 0.256 and 0.423 and 0.503 | Stability towards various proteases [2]: almost completely digested | Stability towards various proteases ([2]; listed as GLUP): remained intact | Cellular localisation (HGC-27 cells [3]; 30 min): in the cytoplasm but outside of the nucleus | Cellular localisation (HGC-27 cells [3]; 80 min): throughout in the cell including the nucleus | Average tumor area vs control (MNU-induced GC tumors; MNU-induced GC mice, 5-week GLUP treatment): much smaller than that in control mice | Gastric mucosa histology (MNU-induced GC tumors; MNU-induced GC mice, high dose GLUP 5 mg/kg): almost normal gastric mucosa | Tumor area, GLUP+ (MNU-induced GC tumors; MNU-induced GC, C57BL/6 mice, 1 mg/kg GLUP biweekly for 5 weeks, individual mice (source data Fig 7B), 1 mg/kg): 28.125 and 40.5 and 20.5 and 4.5 and 6.5 and 16.2 | Tumor area, GLUP++ (MNU-induced GC tumors; MNU-induced GC, C57BL/6 mice, 5 mg/kg GLUP biweekly for 5 weeks, individual mice (source data Fig 7B), 5 mg/kg): 4.5 and 2.5315 and 0.5 and 0 | Condensed fraction of GFP-TEAD4 [4]: 25.1852% and 50.001% and 27.6986% and 34.6228% and 22.4908% and 43.1106% and 47.5218% and 38.4928% and 44.4447%
